Source: patent publication US20250255793A1, “ANTI-AGING CATALYST COMPOSITION COMPRISING A BLEND OF COSMETIC ACIDS” (LOREAL, priority 2024, published 2025)

Assays:
keratinocytes = experiment: Taurine induced NAD+ stimulation in cultured keratinocytes; assay type: cell-based; conditions: for NAD+ level: keratinocytes
Procedure: Cell studies were conducted in which the effects of taurine and niacinamide on the NAD+ production were assessed when keratinocytes were cultured with these raw materials. In all of the tested conditions supplemented with actives, the NAD+ of the cells were increased compared to the untreated control.
Taurine has been identified as an active of interest for skin care due to its potential benefits to boost cell energy. This report explores the effect of supplementing taurine with keratinocytes to understand its effect on increasing NAD+ level in the cells. […] In our in vitro study, we observed that vitamin C, vitamin E and ferulic acid imparts significant benefits to the cell cycle and cell division. When combined with anti-aging catalyst composition, the treatment not only enhances skin renewal and resurfacing benefits but also maintains the positive effects on cell cycle and cell division. This is evident in the more pronounced impact on pathways related to skin cornification and epidermis development compared to single type treatment.

[1] = test system: UVB-induced wrinkle formation; conditions: oral taurine supplementation; cited from earlier work
[2] = test system: diabetic precataractous lens; conditions: dietary taurine supplementation; cited from earlier work

Row | SMILES | NAD+ level (keratinocytes; 0.2% niacinamide) | NAD+ level (keratinocytes; 0.05% taurine) | NAD+ of the cells compared to the untreated control (keratinocytes; keratinocytes cultured with raw material) | UVB-induced wrinkle formation [1] | MDA levels, GSSG/GSH, and NAD+/NADH [2]
1 | NC(=O)c1cccnc1 [niacinamide, reference compound] | higher level of NAD+ compared to 0.05% niacinamide |  |  |  | 
2 | NCCS(=O)(=O)O [taurine] |  | comparable NAD+ level as compared to 0.2% niacinamide | stimulatory effect in increasing the NAD+ level | suppress | ameliorates
